The values below come from paper PMC12346480, “The Pharmacokinetic and Pharmacodynamic Relationship of Clinically Used Antiseizure Medications in the Maximal Electroshock Seizure Model in Rodents” (International Journal of Molecular Sciences, 2025).

Series [1] deals with MES-induced seizures. In words: animal or person. Type of series: in vivo. Here is the method:
(§1) Animals were group-housed (2–4 mice or 3–4 rats per cage) in plastic cages and maintained under controlled temperature (18–25 °C), humidity, ventilation, and lighting (12 h light/dark cycle). They had free access to water and Certified Rodent Chow (Teklad Rodent Chow). Upon arrival, the animals were examined to ensure good health status and were acclimated to the facility for at least 5 days before being subjected to the MES protocol. All experiments were conducted in accordance with guidelines set by the Canadian Council on Animal Care and approved by the Xenon Animal Care Committee.
(§2) Drugs were administered by the intraperitoneal route (IP; dissolved in sterile saline) or oral route (PO; dissolved in 0.5% methylcellulose + 0.2% Tween 80 in DI water) in a volume of 10 mL/kg. Control animals received the appropriate vehicle. The doses and pre-treatment times for each drug, detailed in Table 2, were determined based on in-house data or, in some cases, from the publicly available PANACHE database.
(§3) The MES assay is widely used in the search for anticonvulsant substances. This animal model for generalized tonic–clonic seizures assesses a compound’s ability to prevent seizure spread. […] Before the electroshock stimulation, the eyes were anesthetized with a topical application of 0.5% proparacaine hydrochloride (one drop per eye). Animals were then restrained; the corneal electrodes were applied, and the shock was administered. An MES-induced seizure was characterized by an initial generalized tonic seizure with a hindlimb tonic extensor component.
(§4) The protocols for administering PO or IP doses of the vehicle or drug are described in […]. These doses were administered 0.5–2 h before the application of electric stimulation. An animal was considered protected from MES-induced seizures if the hindlimb tonic extensor component of the seizure was abolished, and it was scored as “0”. […] Seizure induction and scoring were performed by an experimenter who was blinded to treatment conditions.
(§5) After being subjected to the stimulation protocol, rodents were anesthetized by isoflurane inhalation until they reached a surgical plane of anesthesia. Approximately 0.5 mL of blood was collected via cardiac puncture and transferred to EDTA-coated tubes on ice. Animals were then euthanized by cervical dislocation, and their brains were removed, weighed, and immediately frozen on dry ice. At the end of sample collection, blood was centrifuged at 4000 rpm for 10 min at 4 °C, and the plasma was separated. All samples were stored at −80 °C until the time of bioanalysis.
(§6) Plasma samples were extracted for analysis using a protein precipitation method with acetonitrile. A total of 50 µL of diluted plasma samples was mixed with 50 µL of an internal standard (IS) solution in a 1:1 mixture of acetonitrile and water. A total of 200 µL of acetonitrile was then added to the mixture, which was vortexed for 30 s. The samples were centrifuged at 13,000 rpm for 20 min, decanted into a 96-well plate, and further centrifuged at 4000 rpm for 20 min. The samples were then analyzed using ultra-high-performance electrospray ionization tandem mass spectrometry (UHPLC-ESI-MS/MS).
(§7) Brains were homogenized in a 1:1 mixture of acetonitrile and water (2 mL per mouse brain) using the T18 ULTRA-TURRAX (IKA, Staufen im Breisgau, Germany) homogenizer for about 1 min. The homogenate was centrifuged at 13,000 rpm for 20 min, and 50 µL of the supernatant was treated in the same way as the plasma samples for analysis.
(§8) At 1.5 min, the mobile phase composition was switched back to 50% B at 1.6 min and then held at 50% B until 2.5 min. The flow rate used throughout the experiment was 0.4 mL/min. […] Each compound was matched with a proprietary co-eluting internal standard. The UHPLC-ESI MS/MS system was controlled, and samples were quantified using Analyst 1.6.

Series [2] relates to MES-induced seizures. In words: Alternating current maximal electroshock seizure assay (AC-MES) in rats with plasma and brain exposure. The class given is in vivo, Sprague-Dawley rats. The following applies: for ED50: single PO dose, pre-treatment 0.5-2 h per Table 2, read-out: ED50 (median effective dose). Here is the method: as §1, §2, §3, §4, §5, §6, §7, §8
In general terms: In the maximal electroshock model the usual endpoint is tonic extension of the hind limbs.

Series [3] can be described thus: Brain-to-plasma ratio in mice. The following applies: CF-1, mouse. The method, then:
as §5, §6, §7, §8

Series [4] is described as follows: Brain-to-plasma ratio in rats. The following applies: Sprague-Dawley, rat. The method, then:
as §5, §6, §7, §8

Series [5] in a line: Plasma protein binding, mouse. The following applies: Xenon in-house data. From the text: (§9) PPB data is available in Supplemental Table S1.
(§10) Supplemental Table S1. Summary of effective plasma concentrations, plasma protein binding (PPB), and unbound plasma concentrations (Cp,u) for the ASMs tested in mice, rats and humans.
(§11) *For mouse and rat, plasma EC50 from the MES assay at one time point after a single dose is shown. For human, literature-reported therapeutic plasma concentrations are shown. […]
(§12) mouse, for which published data were used. For human, published data is shown.
(§13) *** Cp,u values for rodents have been calculated based on MES EC50. Cp,u values for humans represent the lower and upper bounds of reported therapeutic plasma concentrations, adjusted for PPB, as reported in clinical pharmacokinetic

Series [6] is described as follows: Plasma protein binding, rat. The following applies: Xenon in-house data.
Text: as §9, §10, §11, §12, §13

For series [7], the system named is MES-induced seizures. As to the kind of experiment: animal or person. The class given is in vivo. The following applies: mouse MES; single dose, route and pre-treatment time per Table 2 (PO or IP, 0.25-2 h); read-out: ED50 (median effective dose).
For series [8] the following is noted: human plasma; published data ref 36-47; cited from earlier work.
The conditions of series [9]: human, cited from earlier work; for Effective plasma concentration: literature-reported therapeutic plasma concentrations ref 36-47; for Cp,u (unbound therapeutic plasma concentration): lower and upper bounds of therapeutic plasma concentrations adjusted for PPB ref 36-47.
The conditions of series [10]: mouse plasma, cited from earlier work.
On the set-up of series [11]: method as in earlier work. The following applies: rat plasma; published data ref 34; cited from earlier work.
The mark [12] stands for this setting: mouse MES, brain concentration for 50% probability of seizure protection, read-out: EC50 Brain.
[13] abbreviates: mouse MES, plasma concentration for 50% probability of seizure protection, one time point after single dose, read-out: EC50 Plasma.
[14] abbreviates: mouse, calculated based on MES EC50 and PPB, read-out: Cp,u EC50 (unbound plasma concentration).
[15] abbreviates: rat MES, brain concentration for 50% probability of seizure protection, read-out: EC50 Brain.
Setting [16] is: rat MES, plasma concentration for 50% probability of seizure protection, one time point after single dose, read-out: EC50 Plasma.
The mark [17] stands for this setting: rat, calculated based on MES EC50 and PPB, read-out: Cp,u EC50 (unbound plasma concentration).
Where [18] appears, read: Rattus norvegicus, read-out: Cp,u EC50 (unbound plasma concentration).
Setting [19] is: Rattus norvegicus, read-out: EC50 Brain.
[20] abbreviates: Rattus norvegicus, read-out: EC50 Plasma.

Read-outs that look alike come from different tables or passages of the source.

In general, ED50 refers to the midpoint of the dose-response relation. Consider `NC(=O)N1c2ccccc2C=Cc2ccccc21` [CBZ, carbamazepine], for which the EC50 was 32.5 µM in the series on MES-induced seizures [1] (setting [12]); 13.8 µM in the series on MES-induced seizures [1] (setting [13]); 7.04 µM in the series on MES-induced seizures [1] (setting [14]); 4.7 µM with MES-induced seizures [2] (setting [15]); 4.55 µM in the series on MES-induced seizures [2] (setting [16]); 1.63 µM with MES-induced seizures [2] (setting [17]). Besides, the ED50 stood at 4.39 mg/kg with MES-induced seizures [2] (rat MES) and 9.67 mg/kg in the series with MES-induced seizures [7]. In addition, the Kp in [3] (brain and plasma, oral) came out at 2.36; in series [4] (brain and plasma, oral) it was 1.03. The entries for the “PPB (% bound)” value in series [5], in series [6] and in series [8] were 52.4 % bound, 63.9 % bound and 75.0 % bound, respectively. In addition, the Effective plasma concentration in [9] is 17 to 51 µM. Moreover, the “Cp,u (unbound therapeutic plasma concentration)” value in series [9] was 4.25 to 12.8 µM.
For `NC(=O)O[C@@H](Cn1ncnn1)c1ccccc1Cl` [CNB, cenobamate], the EC50 in the series on MES-induced seizures [1] (setting [12]) was 24.9 µM; with MES-induced seizures [1] (setting [13]), 66 µM; in the series on MES-induced seizures [1] (setting [14]) it was 40.1 µM; in the series on MES-induced seizures [2] (setting [18]), 8.93 µM; in the series on MES-induced seizures [2] (setting [19]), 10.7 µM; with MES-induced seizures [2] (setting [20]) it was 15.9 µM. Moreover, the “Doses giving significant reduction of MES-induced seizures (fraction seizing)” value in the series on MES-induced seizures [2] (rat MES, vs vehicle, Kruskal-Wallis/Dunn) amounted to 18 mg/kg. The Kp was found to be 0.38 in series [3] (in vivo) and 0.67 in [4] (in vivo). Moreover, the “PPB (% bound)” value in series [6] is given as 46.1 % bound; in series [10] (published data ref 35) it was 43.2 % bound; in [8], 60.0 % bound. Besides, the ED50 with MES-induced seizures [7] came out at 7.05 mg/kg. In [9], the Effective plasma concentration is 89.3 to 170 µM. Besides, in series [9], the “Cp,u (unbound therapeutic plasma concentration)” value was 35.7 to 68.0 µM.
As for `COC[C@@H](NC(C)=O)C(=O)NCc1ccccc1` [LSM, lacosamide], the EC50 in the series with MES-induced seizures [1] (setting [12]) is 14.8 µM; in the series on MES-induced seizures [1] (setting [13]), 19.3 µM; in the series on MES-induced seizures [1] (setting [14]) it was 15.6 µM; in the series with MES-induced seizures [2] (setting [18]) it was 22.2 µM; in the series with MES-induced seizures [2] (setting [19]), 12.2 µM; with MES-induced seizures [2] (setting [20]) it was 24.9 µM. Further, the Kp came to 0.77 in series [3] (in vivo) and 0.49 in [4] (in vivo). The “PPB (% bound)” value is recorded as 21.8 % bound in series [5], 22.9 % bound in series [6] and 13.4 % bound in [8]. Besides, the ED50 in the series on MES-induced seizures [7] was found to be 15.2 mg/kg.
Turning to `O=C1NC(=O)C(c2ccccc2)(c2ccccc2)N1` [PHT, phenytoin], the EC50 in the series with MES-induced seizures [1] (setting [12]) was 30.6 µM; with MES-induced seizures [1] (setting [13]), 27.6 µM; with MES-induced seizures [1] (setting [14]), 5.37 µM; in the series with MES-induced seizures [2] (setting [15]), 2.66 µM; in the series on MES-induced seizures [2] (setting [16]) it was 3.2 µM; in the series with MES-induced seizures [2] (setting [17]) it was 0.89 µM. Besides, the ED50 with MES-induced seizures [2] (rat MES) was 16.9 mg/kg; in the series with MES-induced seizures [7], 9.81 mg/kg. The Kp in series [3] (brain and plasma, oral) amounted to 1.11; in series [4] (brain and plasma, oral), 0.83. Besides, the “PPB (% bound)” value in [5] is 80.3 % bound; in series [6], 80.6 % bound; in [8] it was 90.0 % bound. Besides, the Effective plasma concentration in series [9] was 40 to 79 µM. In series [9], the “Cp,u (unbound therapeutic plasma concentration)” value was 4.00 to 7.90 µM.
Take `CCOC(=O)Nc1ccc(NCc2ccc(F)cc2)cc1N` [RTG, retigabine]: the EC50 is 2.26 µM with MES-induced seizures [1] (setting [13]), 0.52 µM with MES-induced seizures [1] (setting [14]), 0.2 µM with MES-induced seizures [2] (setting [18]) and 1.46 µM in the series with MES-induced seizures [2] (setting [20]). Also, the “PPB (% bound)” value in series [5] is 86.2 % bound; in series [6], 85.1 % bound; in series [8] it was 80.0 % bound. Besides, the Effective plasma concentration in series [9] is 1.98 to 3.99 µM.
Regarding `CCCC(CCC)C(=O)O` [VPA, valproic acid], the EC50 was 630 µM in the series on MES-induced seizures [1] (Mus musculus, read-out: EC50 Brain); 1670 µM with MES-induced seizures [1] (setting [13]); 1640 µM in the series on MES-induced seizures [1] (setting [14]); 647 µM in the series on MES-induced seizures [2] (setting [18]); 307 µM in the series with MES-induced seizures [2] (setting [19]); 1310 µM in the series with MES-induced seizures [2] (setting [20]). The Kp was determined as 0.38 in series [3] (brain and plasma, oral); 0.24 in series [4] (brain and plasma, oral). Besides, the ED50 in the series on MES-induced seizures [7] came out at 196 mg/kg. Also, the “PPB (% bound)” value in series [11] is listed as 66.5 % bound; in [10] (published data ref 34) it was 12.0 % bound; in [8], 90.0 % bound. Besides, in series [9], the Effective plasma concentration is 346 to 693 µM. Moreover, the “Cp,u (unbound therapeutic plasma concentration)” value in [9] is 34.6 to 69.3 µM.
